A short description of the data set: Solubility in propylene glycol methyl ether acetate. In kind it is physicochemical. To be noted: 1.0 g added to 100 g of propylene glycol methyl ether acetate, stirring. The text has this: 1.0 g of sodium 2-(1′-adamantane)carbonyloxy-1,1-difluoroethanesulfonate synthesized in Example 8 was weighed and added to 100 g of propylene glycol methyl ether acetate, followed by stirring.

Each structure is given as a SMILES string.

As to `O=C(OCC(F)(F)S(=O)(=O)[O-])C12CC3CC(CC(C3)C1)C2.c1ccc([S+](c2ccccc2)c2ccccc2)cc1` [Example 8, triphenylsulfonium 2-(1′-adamantane)carbonyloxy-1,1-difluoroethanesulfonate], the Solubility entry is reported as “completely dissolved”.

Values taken from patent US8222448B2, “Processes for production of 2-bromo-2,2-difluoroethanol and 2-(alkylcarbonyloxy)-1, 1-difluoroethanesulfonic acid salt” (priority 2007, dated 2012).
